According to US8329918B2, “Selective alpha 2B/2C agonists” (priority 2009, dated 2012):
Read-outs that look alike come from different tables or passages of the source.

Columns and labels:
alpha2A receptor = biological target: T1, alpha2A receptor (Homo sapiens, UniProt P08913); test: RSAT assay, alpha 2A; assay type: cell-based; settings: RSAT; for EC50: NIH-3T3 cells, NA = not active, read-out: EC50 (nM) Alpha 2A; for (rel. efficacy) Alpha 2A: ratio of maximal effect to standard full agonist brimonidine (UK14304)
T1 sequence (P08913 1-465): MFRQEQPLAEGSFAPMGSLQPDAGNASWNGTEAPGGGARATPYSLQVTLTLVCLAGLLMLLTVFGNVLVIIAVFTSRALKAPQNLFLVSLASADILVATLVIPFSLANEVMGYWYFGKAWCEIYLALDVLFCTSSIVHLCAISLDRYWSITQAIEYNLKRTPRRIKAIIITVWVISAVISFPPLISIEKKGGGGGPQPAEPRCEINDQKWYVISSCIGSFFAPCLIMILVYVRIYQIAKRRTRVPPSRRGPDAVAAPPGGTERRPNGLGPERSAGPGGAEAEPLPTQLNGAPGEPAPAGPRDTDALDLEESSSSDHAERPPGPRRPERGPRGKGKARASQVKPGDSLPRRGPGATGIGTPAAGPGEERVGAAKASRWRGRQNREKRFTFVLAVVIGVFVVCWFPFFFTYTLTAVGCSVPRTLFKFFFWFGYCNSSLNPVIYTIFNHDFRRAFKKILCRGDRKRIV
Description: (§1) Selected presently described compounds were synthesized and tested for alpha adrenergic activity using the Receptor Selection and Amplification Technology (RSAT) assay. Cells expressing each of the alpha-2-adrenergic receptors alone were incubated with various compounds and a receptor-mediated growth response was measured. The compound's activity is expressed as its relative efficacy compared to a standard full agonist.
(§2) The RSAT assay measures a receptor-mediated loss of contact inhibition that results in selective proliferation of receptor-containing cells in a mixed population of confluent cells. The increase in cell number is assessed with an appropriate transfected marker gene such as β-galactosidase, the activity of which can be easily measured in a 96-well format. Receptors that activate the G protein, Gq, elicit this response. Alpha2 receptors, which normally couple to Gi, activate the RSAT response when coexpressed with a hybrid Gq protein that has a Gi receptor recognition domain, called Gq/i5.
(§3) NIH-3T3 cells are plated at a density of 2×10^6 cells in 15 cm dishes and maintained in Dulbecco's modified Eagle's medium supplemented with 10% calf serum. One day later, cells are cotransfected by calcium phosphate precipitation with mammalian expression plasmids encoding p-SV-β-galactosidase (5-10 μg), receptor (1-2 μg) and G protein (1-2 μg). 40 μg salmon sperm DNA may also be included in the transfection mixture. Fresh media is added on the following day and 1-2 days later, cells are harvested and frozen in 50 assay aliquots. Cells are thawed and […] added to […] aliquots of various concentrations of drugs in triplicate in 96-well dishes. Incubations continue 72-96 hr at 37° C. After washing with phosphatebuffered saline, β-galactosidase enzyme activity is determined by adding 200 μl of the chromogenic substrate (consisting of 3.5 mM o-nitrophenyl-β-D-galactopyranoside and 0.5% nonidet P-40 in phosphate buffered saline), incubating overnight at 30° C. and measuring optical density at 420 nm. The absorbance is a measure of enzyme activity, which depends on cell number and reflects a receptor-mediated cell proliferation. The EC50 and maximal effect of each drug at each alpha2 receptor is determined. The efficacy or intrinsic activity is calculated as a ratio of the maximal effect of the drug to the maximal effect of a standard full agonist for each receptor subtype. Brimonidine, also called UK14304, is used as the standard agonist for the alpha2A, alpha2B, and alpha2C receptors.
(§4) The compounds activity is expressed as its relative efficacy compared to a standard full agonist.

alpha2C receptor = biological target: T2, alpha2C receptor (Homo sapiens, UniProt P18825); test: RSAT assay, alpha 2C; assay type: cell-based; settings: for (rel. efficacy) Alpha 2C: ratio of maximal effect to standard full agonist brimonidine (UK14304)
T2 construct: expressed in transfected cells; host or cells: NIH-3T3
T2 sequence (P18825 1-462): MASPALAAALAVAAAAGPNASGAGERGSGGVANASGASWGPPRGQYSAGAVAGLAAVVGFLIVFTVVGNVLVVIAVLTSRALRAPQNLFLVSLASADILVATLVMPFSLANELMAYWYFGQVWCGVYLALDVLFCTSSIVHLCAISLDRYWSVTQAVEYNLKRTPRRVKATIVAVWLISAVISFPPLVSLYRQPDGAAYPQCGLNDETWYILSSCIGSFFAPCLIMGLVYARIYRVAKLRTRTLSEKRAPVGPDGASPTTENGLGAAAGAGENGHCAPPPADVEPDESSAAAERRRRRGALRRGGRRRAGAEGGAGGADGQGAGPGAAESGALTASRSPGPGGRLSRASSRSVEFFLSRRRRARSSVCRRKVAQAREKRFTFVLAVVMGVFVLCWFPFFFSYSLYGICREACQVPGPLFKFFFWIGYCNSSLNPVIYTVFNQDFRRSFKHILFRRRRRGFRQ
Description: as §1, §2, §3, §4

alpha2B receptor = biological target: T3, alpha2B receptor (Homo sapiens, UniProt P18089); test: RSAT assay, alpha 2B; assay type: cell-based; settings: for (rel. efficacy) Alpha 2B: ratio of maximal effect to standard full agonist brimonidine (UK14304)
T3 construct: expressed in transfected cells; host or cells: NIH-3T3
T3 sequence (P18089 1-450): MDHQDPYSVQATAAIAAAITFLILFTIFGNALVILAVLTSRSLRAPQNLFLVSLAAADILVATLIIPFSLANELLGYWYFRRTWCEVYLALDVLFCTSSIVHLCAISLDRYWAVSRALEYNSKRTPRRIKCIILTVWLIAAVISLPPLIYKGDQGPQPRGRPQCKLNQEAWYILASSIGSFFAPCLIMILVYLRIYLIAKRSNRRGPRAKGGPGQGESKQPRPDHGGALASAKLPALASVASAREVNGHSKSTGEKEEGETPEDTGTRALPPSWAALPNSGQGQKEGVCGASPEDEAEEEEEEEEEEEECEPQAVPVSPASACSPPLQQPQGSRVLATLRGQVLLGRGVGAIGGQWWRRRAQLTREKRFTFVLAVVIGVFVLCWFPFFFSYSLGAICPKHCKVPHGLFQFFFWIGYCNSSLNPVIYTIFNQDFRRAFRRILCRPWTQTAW
Description: as §1, §2, §3, §4

[1] = tested on: diabetic patient with moderate neuropathy in the right leg; test: Treating diabetic peripheral neuropathy in a patient; assay type: in vivo; settings: topical composition on the right leg twice daily; two months later
Description: A topical composition including N-(2-methoxybenzyl)-4,5-dihydrooxazol-2-amine is administered on the right leg of the patient twice daily.
III. […] A topical composition including N-(2-methoxybenzyl)-4,5-dyhydrothizaol-2-amine is administered on the right leg of the patient twice daily.
III. […] A topical composition including N-(3-chloro-2-fluorobenzyl)-4,5-dihydrooxazol-2-amine is administered on the right leg of the patient twice daily.

[2] = tested on: patient with moderate intraocular pressure in the right eye; test: Treating elevated intraocular pressure in a patient; assay type: in vivo; settings: ophthalmic composition to the right eye twice daily; two months later
Excerpt: An ophthalmic composition including N-(2-methoxybenzyl)-4,5-dihydrooxazol-2-amine is delivered to the right eye of the patient twice daily.
II. […] An ophthalmic composition including N-(2-methoxybenzyl)-4,5-dyhydrothizaol-2-amine is delivered to the right eye of the patient twice daily.
III. […] An ophthalmic composition including N-(3-chloro-2-fluorobenzyl)-4,5-dihydrooxazol-2-amine is delivered to the right eye of the patient twice daily.

[3] = tested on: patient with moderate post-herpetic neuralgia pain; test: Treating post-herpetic neuralgia pain in a patient; assay type: in vivo; settings: tablet twice daily as needed
Excerpt: A tablet including N-(2-methoxybenzyl)-4,5-dihydrooxazol-2-amine is delivered taken by the patient twice daily as needed for the pain.
II. […] A tablet including N-(2-methoxybenzyl)-4,5-dyhydrothizaol-2-amine is delivered taken by the patient twice daily as needed for the pain.
III. […] A tablet including N-(3-chloro-2-fluorobenzyl)-4,5-dihydrooxazol-2-amine is delivered taken by the patient twice daily as needed for the pain.

[4] = RSAT, NIH-3T3 cells, NA = not active, read-out: EC50 (nM) Alpha 2C

Clc1ccc(Br)c(CNC2=NCCS2)c1
EC50 (alpha2A receptor): 2270 nM | (rel. efficacy) Alpha 2A (alpha2A receptor): 0.45 | EC50 (alpha2C receptor; [4]): 855 nM | (rel. efficacy) Alpha 2C (alpha2C receptor; RSAT): 0.69 | EC50 (alpha2B receptor; RSAT, NIH-3T3 cells, NA = not active, read-out: EC50 (nM) Alpha 2B): 250 nM | (rel. efficacy) Alpha 2B (alpha2B receptor; RSAT): 1.04

Cc1cccc(CNC2=NCCS2)c1Cl
EC50 (alpha2A receptor): 281 nM | (rel. efficacy) Alpha 2A (alpha2A receptor): 0.4 | EC50 (alpha2C receptor): 32 nM | (rel. efficacy) Alpha 2C (alpha2C receptor; RSAT): 1.03 | EC50 (alpha2B receptor): 11 nM | (rel. efficacy) Alpha 2B (alpha2B receptor; RSAT): 1.27

COc1c(Br)cccc1CNC1=NCCS1
EC50 (alpha2A receptor): 621 nM | (rel. efficacy) Alpha 2A (alpha2A receptor): 0.55 | EC50 (alpha2C receptor; [4]): 109 nM | (rel. efficacy) Alpha 2C (alpha2C receptor; RSAT): 0.81 | EC50 (alpha2B receptor): 31 nM | (rel. efficacy) Alpha 2B (alpha2B receptor; RSAT): 1.1

Fc1c(I)cccc1CNC1=NCCS1
EC50 (alpha2A receptor): 589 nM | (rel. efficacy) Alpha 2A (alpha2A receptor): 1.07 | EC50 (alpha2C receptor): 88 nM | (rel. efficacy) Alpha 2C (alpha2C receptor; RSAT): 1.05 | EC50 (alpha2B receptor): 6 nM | (rel. efficacy) Alpha 2B (alpha2B receptor; RSAT): 1.0

COc1ccccc1CNC1=NCCO1 [N-(2-methoxybenzyl)-4,5-dihydrooxazol-2-amine]
neuropathy of the patient [1]: reduction neuropathy | intraocular pressure of the patient [2]: normal intraocular pressure | patient-reported pain [3]: reduction of pain

COc1ccccc1CNC1=NCCS1 [N-(2-methoxybenzyl)-4,5-dihydrothiazol-2-amine]
neuropathy of the patient [1]: reduction neuropathy | intraocular pressure of the patient [2]: normal intraocular pressure | patient-reported pain [3]: reduction of pain

Fc1c(Cl)cccc1CNC1=NCCO1 [N-(3-chloro-2-fluorobenzyl)-4,5-dihydrooxazol-2-amine]
neuropathy of the patient [1]: reduction neuropathy | intraocular pressure of the patient [2]: normal intraocular pressure | patient-reported pain [3]: reduction of pain
